Assay results reported in patent US20250268826A1, “IONIZABLE LIPIDOID COMPOSITIONS AND THERAPEUTIC USES THEREOF” (Flagship Pioneering Innovations VII, LLC, priority 2023, published 2025).

Test: LNP size and polydispersity index (PDI) by dynamic light scattering (DLS)
Format: physicochemical
Conditions: not given

| SMILES | PDI | Size (nm) |
| --- | --- | --- |
| CCCCCCCCC(CCCCCC)C(=O)OCCN(CCOC(=O)C(CCCCCC)CCCCCCCC)C(=O)C(C)CCN(C)C (stereo not shown) [Compound 987a] | 0.104 | 73.2 nm |

Same assay, conditions: Example 19 Study 1; LNP with SARS-CoV-2 spike mRNA; N:P 6; standard mol. ratios unless noted "opt"

| SMILES | PDI | Size |
| --- | --- | --- |
| CCCCCCCCCCCOC(=O)CCCCCN(CCO)CCCCCCCC(=O)OC(CCCCCCCC)CCCCCCCC [SM-102, reference compound] | 0.065 | 94.8 nm |

Same assay, conditions: Table 1; LNP lipid:DSPC:Cholesterol:DMG-PEG2k 50:10:38.5:1.5 mol %; hEPO mRNA; N:P 6

| SMILES | PDI | Size |
| --- | --- | --- |
| CCCCCCCCCCCOC(=O)CCCCCN(CCO)CCCCCCCC(=O)OC(CCCCCCCC)CCCCCCCC [SM-102, reference compound] | 0.074 | 81.8 nm |

Same assay, conditions: Table 7; LNP 50:10:38.5:1.5 mol %; helper lipid DSPC; hEPO mRNA; N:P 6

| SMILES | PDI |
| --- | --- |
| CCCCCCCCCCCOC(=O)CCCCCN(CCO)CCCCCCCC(=O)OC(CCCCCCCC)CCCCCCCC [SM-102, reference compound] | 0.041 |

Same assay, conditions: Table 7; LNP ionizable lipid:Helper Lipid:Cholesterol:DMG-PEG2k 50:10:38.5:1.5 mol %; helper lipid DSPC; hEPO mRNA; N:P 6

| SMILES | Size |
| --- | --- |
| CCCCCCCCCCCOC(=O)CCCCCN(CCO)CCCCCCCC(=O)OC(CCCCCCCC)CCCCCCCC [SM-102, reference compound] | 75.3 nm |

Same assay, conditions: Table 8; LNP 50:10:38.5:1.5 mol %; hEPO mRNA; N:P 6

| PDI | SMILES |
| --- | --- |
| 0.159 | CCCCCCCCC(CCCCCC)C(=O)OCCN(CCOC(=O)C(CCCCCC)CCCCCCCC)C(=O)CCCN(CC)CCC.Cl (stereo not shown) [Compound 980] |
| 0.081 | CCCCCCCCC(CCCCCC)C(=O)OCCN(CCOC(=O)C(CCCCCC)CCCCCCCC)C(=O)CCCN1CCCC1.Cl (stereo not shown) [Compound 982] |
| 0.114 | CCCCCCCCC(CCCCCC)C(=O)OCCN(CCOC(=O)C(CCCCCC)CCCCCCCC)C(=O)CCCN1CCCCC1.Cl (stereo not shown) [Compound 983] |

| SMILES | PDI |
| --- | --- |
| CCCCCCCC(CCCCCCC)C(=O)OCCN(CCOC(=O)C(CCCCCCC)CCCCCCC)C(=O)CCCN(C)C [Compound 932] | 0.155 |
| CCCCCCCCCCCOC(=O)CCCCCN(CCO)CCCCCCCC(=O)OC(CCCCCCCC)CCCCCCCC [SM-102, reference compound] | 0.042 |

Same assay, conditions: Table 8; LNP Lipid:DSPC:Cholesterol:DMG-PEG2k 50:10:38.5:1.5 mol %; hEPO mRNA; N:P 6

| Size | SMILES |
| --- | --- |
| 90.1 nm | CCCCCCCCC(CCCCCC)C(=O)OCCN(CCOC(=O)C(CCCCCC)CCCCCCCC)C(=O)CCCN(CC)CCC.Cl (stereo not shown) [Compound 980] |
| 120.5 nm | CCCCCCCCC(CCCCCC)C(=O)OCCN(CCOC(=O)C(CCCCCC)CCCCCCCC)C(=O)CCCN1CCCC1.Cl (stereo not shown) [Compound 982] |
| 90.4 nm | CCCCCCCCC(CCCCCC)C(=O)OCCN(CCOC(=O)C(CCCCCC)CCCCCCCC)C(=O)CCCN1CCCCC1.Cl (stereo not shown) [Compound 983] |

| SMILES | Size |
| --- | --- |
| CCCCCCCC(CCCCCCC)C(=O)OCCN(CCOC(=O)C(CCCCCCC)CCCCCCC)C(=O)CCCN(C)C [Compound 932] | 123.7 nm |
| CCCCCCCCCCCOC(=O)CCCCCN(CCO)CCCCCCCC(=O)OC(CCCCCCCC)CCCCCCCC [SM-102, reference compound] | 80.3 nm |

Same assay, conditions: Table 9; LNP 50:10:38.5:1.5 mol %; hEPO mRNA; N:P 6

| SMILES | PDI |
| --- | --- |
| CCCCCCCCCCCOC(=O)CCCCCN(CCO)CCCCCCCC(=O)OC(CCCCCCCC)CCCCCCCC [SM-102, reference compound] | 0.098 |

Same assay, conditions: Table 9; LNP Lipid:DSPC:Cholesterol:DMG-PEG2k 50:10:38.5:1.5 mol %; hEPO mRNA; N:P 6

| SMILES | Size |
| --- | --- |
| CCCCCCCCCCCOC(=O)CCCCCN(CCO)CCCCCCCC(=O)OC(CCCCCCCC)CCCCCCCC [SM-102, reference compound] | 80.7 nm |

Same assay, conditions: Table 10; LNP with hEPO mRNA, Lipid:DSPC:Cholesterol:DMG-PEG2k 50:10:38.5:1.5 mol %, N:P ratio 6; DLS

| SMILES | PDI | Size (nm) |
| --- | --- | --- |
| CCCCCCCCCCCOC(=O)CCCCCN(CCO)CCCCCCCC(=O)OC(CCCCCCCC)CCCCCCCC [SM-102, reference compound] | 0.272 | 56.5 nm |

Same assay, conditions: Table 11; LNP with hEPO mRNA, Lipid:DSPC:Cholesterol:DMG-PEG2k 50:10:38.5:1.5 mol % (ALC-0315: 46.3:9.4:42.7:1.6), N:P ratio 6; HEPES/sodium chloride/sucrose buffer, stored at −80C

| SMILES | PDI | Size (nm) |
| --- | --- | --- |
| CCCCCCCCCCCOC(=O)CCCCCN(CCO)CCCCCCCC(=O)OC(CCCCCCCC)CCCCCCCC [SM-102, reference compound] | 0.087 | 69.6 nm |

Same assay, conditions: Vaccine Study 2; LNP with spike mRNA, 50/10/38.5/1.5 mol % ionizable lipid:helper lipid:cholesterol:DMG-PEG2k, N-to-P ratio 6

| SMILES | PDI | Size (nm) |
| --- | --- | --- |
| CCCCCCCCCCCOC(=O)CCCCCN(CCO)CCCCCCCC(=O)OC(CCCCCCCC)CCCCCCCC [SM-102, reference compound] | 0.127 | 88.4 nm |

Test: LNP Zeta potential measured using a Zetasizer (Malvern)
Format: physicochemical
Conditions: Table 1; LNP lipid:DSPC:Cholesterol:DMG-PEG2k 50:10:38.5:1.5 mol %; hEPO mRNA; N:P 6

| SMILES | Zeta potential |
| --- | --- |
| CCCCCCCCCCCOC(=O)CCCCCN(CCO)CCCCCCCC(=O)OC(CCCCCCCC)CCCCCCCC [SM-102, reference compound] | −3.729 mV |

Same assay, conditions: Table 7; LNP 50:10:38.5:1.5 mol %; helper lipid DSPC; hEPO mRNA; N:P 6

| SMILES | Zeta potential |
| --- | --- |
| CCCCCCCCCCCOC(=O)CCCCCN(CCO)CCCCCCCC(=O)OC(CCCCCCCC)CCCCCCCC [SM-102, reference compound] | −17.15 mV |

Same assay, conditions: Table 8; LNP 50:10:38.5:1.5 mol %; hEPO mRNA; N:P 6

| Zeta potential | SMILES |
| --- | --- |
| −18.1 mV | CCCCCCCCC(CCCCCC)C(=O)OCCN(CCOC(=O)C(CCCCCC)CCCCCCCC)C(=O)CCCN(CC)CCC.Cl (stereo not shown) [Compound 980] |
| −14.2 mV | CCCCCCCCC(CCCCCC)C(=O)OCCN(CCOC(=O)C(CCCCCC)CCCCCCCC)C(=O)CCCN1CCCC1.Cl (stereo not shown) [Compound 982] |
| −15.9 mV | CCCCCCCCC(CCCCCC)C(=O)OCCN(CCOC(=O)C(CCCCCC)CCCCCCCC)C(=O)CCCN1CCCCC1.Cl (stereo not shown) [Compound 983] |

| SMILES | Zeta potential |
| --- | --- |
| CCCCCCCC(CCCCCCC)C(=O)OCCN(CCOC(=O)C(CCCCCCC)CCCCCCC)C(=O)CCCN(C)C [Compound 932] | −9.4 mV |
| CCCCCCCCCCCOC(=O)CCCCCN(CCO)CCCCCCCC(=O)OC(CCCCCCCC)CCCCCCCC [SM-102, reference compound] | −9.7 mV |

Same assay, conditions: Table 10; LNP with hEPO mRNA, Lipid:DSPC:Cholesterol:DMG-PEG2k 50:10:38.5:1.5 mol %, N:P ratio 6

| SMILES | Zeta potential (mV) |
| --- | --- |
| CCCCCCCCCCCOC(=O)CCCCCN(CCO)CCCCCCCC(=O)OC(CCCCCCCC)CCCCCCCC [SM-102, reference compound] | −5.9 mV |

Same assay, conditions: Table 11; LNP with hEPO mRNA, Lipid:DSPC:Cholesterol:DMG-PEG2k 50:10:38.5:1.5 mol % (ALC-0315: 46.3:9.4:42.7:1.6), N:P ratio 6; HEPES/sodium chloride/sucrose buffer, stored at −80C

| SMILES | Zeta potential (mV) |
| --- | --- |
| CCCCCCCCC(CCCCCC)C(=O)OCCN(CCOC(=O)C(CCCCCC)CCCCCCCC)C(=O)C(C)CCN(C)C (stereo not shown) [Compound 987a] | −3.5 mV |
| CCCCCCCCCCCOC(=O)CCCCCN(CCO)CCCCCCCC(=O)OC(CCCCCCCC)CCCCCCCC [SM-102, reference compound] | −1.0 mV |

Same assay, conditions: Vaccine Study 2; LNP with spike mRNA, 50/10/38.5/1.5 mol % ionizable lipid:helper lipid:cholesterol:DMG-PEG2k, N-to-P ratio 6

| SMILES | Zeta (mV) |
| --- | --- |
| CCCCCCCCCCCOC(=O)CCCCCN(CCO)CCCCCCCC(=O)OC(CCCCCCCC)CCCCCCCC [SM-102, reference compound] | −4.1 mV |

Test: Apparent pKa of the LNPs by fluorescence based TNS assay
Conditions: Table 8; apparent pKa of LNP 50:10:38.5:1.5 mol %; hEPO mRNA; N:P 6

| SMILES | pKa |
| --- | --- |
| CCCCCCCC(CCCCCCC)C(=O)OCCN(CCOC(=O)C(CCCCCCC)CCCCCCC)C(=O)CCCN(C)C [Compound 932] | 6.92 |

Same assay, conditions: Vaccine Study 2; LNP with spike mRNA, 50/10/38.5/1.5 mol % ionizable lipid:helper lipid:cholesterol:DMG-PEG2k, N-to-P ratio 6

| SMILES | Apparent pKa |
| --- | --- |
| CCCCCCCCCCCOC(=O)CCCCCN(CCO)CCCCCCCC(=O)OC(CCCCCCCC)CCCCCCCC [SM-102, reference compound] | 7.2 |

Test: Encapsulation efficiency (EE %) by fluorescence based Ribogreen assay
Format: physicochemical
Conditions: not given

| SMILES | Encapsulation Efficiency % |
| --- | --- |
| CCCCCCCCC(CCCCCC)C(=O)OCCN(CCOC(=O)C(CCCCCC)CCCCCCCC)C(=O)C(C)CCN(C)C (stereo not shown) [Compound 987a] | 95.7% |

Same assay, conditions: Example 19 Study 1; LNP with SARS-CoV-2 spike mRNA; N:P 6; standard mol. ratios unless noted "opt"

| SMILES | EE (%) |
| --- | --- |
| CCCCCCCCCCCOC(=O)CCCCCN(CCO)CCCCCCCC(=O)OC(CCCCCCCC)CCCCCCCC [SM-102, reference compound] | 91.5% |

Same assay, conditions: Table 8; LNP 50:10:38.5:1.5 mol %; hEPO mRNA; N:P 6

| Encapsulation Efficiency % | SMILES |
| --- | --- |
| 94.9% | CCCCCCCCC(CCCCCC)C(=O)OCCN(CCOC(=O)C(CCCCCC)CCCCCCCC)C(=O)CCCN(CC)CCC.Cl (stereo not shown) [Compound 980] |
| 99.9% | CCCCCCCCC(CCCCCC)C(=O)OCCN(CCOC(=O)C(CCCCCC)CCCCCCCC)C(=O)CCCN1CCCC1.Cl (stereo not shown) [Compound 982] |
| 97.1% | CCCCCCCCC(CCCCCC)C(=O)OCCN(CCOC(=O)C(CCCCCC)CCCCCCCC)C(=O)CCCN1CCCCC1.Cl (stereo not shown) [Compound 983] |

| SMILES | Encapsulation Efficiency % |
| --- | --- |
| CCCCCCCC(CCCCCCC)C(=O)OCCN(CCOC(=O)C(CCCCCCC)CCCCCCC)C(=O)CCCN(C)C [Compound 932] | 99.9% |

Same assay, conditions: Vaccine Study 2; LNP with spike mRNA, 50/10/38.5/1.5 mol % ionizable lipid:helper lipid:cholesterol:DMG-PEG2k, N-to-P ratio 6

| SMILES | EE (%) |
| --- | --- |
| CCCCCCCCCCCOC(=O)CCCCCN(CCO)CCCCCCCC(=O)OC(CCCCCCCC)CCCCCCCC [SM-102, reference compound] | 97.8% |
